Results: patent publication US12472197B2 (priority 2020, dated 2025)
Read-outs that look alike come from different tables or passages of the source.

Legend:
SARS-CoV (Urbani strain) = format: cell-based; conditions: Vero-76 cells
MERS-CoV (Jordan strain) = format: cell-based; conditions: Vero-76 cells
[1] = test system: SARS-CoV-2 (WA1/2020 strain); assay: Virus yield reduction (VYR) assay, SARS-CoV-2 in Vero76 cells; format: cell-based; conditions: for EC90: Vero76 cells
[2] = Phase 1 single ascending dose study, intravenous administration in healthy human subjects; format: in vivo; conditions: for AUC0-inf / AUC24 / CL / Cmax / Vz / t1/2 / AUCt: geometric mean, preliminary; for AUCt: t 120 h to 480 h
Protocol: The agent used in this Example was compound A (the compound of formula I, where A is NH2 and B is H as the HCL salt). A phase 1 double-blind, placebo-controlled, single ascending dose study was conducted to evaluate the safety, tolerability, and pharmacokinetics of Compound A administered by intravenous (IV) administration in healthy human subjects. Four cohorts were administered the study drug at the following doses: 5 mg/kg, 10 mg/kg, 15 mg/kg, and 20 mg/kg. Eight subjects received a single IV dose per cohort (6 subjects received Compound A; 2 subjects received matching placebo). Subject dosing was staggered as a safety precaution.
The plasma PK concentration-time profile of Compound A at all doses was characterized by an initial rapid distribution and clearance phase, and a slow terminal clearance phase. […] The inter-subject variability in exposure (Cmax and AUC) was low, as reflected in the geometric mean coefficients of variance (CVs) on these parameters. No subjects met any stopping criteria for any cohort.

NOAEL exposure in NHP = format: in vivo; conditions: 30 mg/kg dose
[3] = human, in vivo
[4] = human, in vivo; remark: listed apart in the source
[5] = human, in vivo; remark: listed apart in the source
[6] = test system: SARS-CoV-2 (WA1/2020 isolate); assay: SARS-CoV-2 hamster model of infection; conditions: for lung tissue histopathology (total histology score) vs vehicle control: Days +3 and +7; for lung viral burden lower than vehicle control: 100 mg/kg BID i.p., Day 3 post-infection
SARS-CoV-2 = assay: Randomized placebo-controlled dose-ranging study, IV infusion in hospitalized adults with COVID-19 (Part 1)
[7] = EC50 adjusted with CLE, read-out: Adjusted EC50
[8] = NR uptake, MOI 0.001, 3 days, read-out: EC50

Nc1ncnc2c([C@@H]3N[C@H](CO)[C@@H](O)[C@H]3O)c[nH]c12 [Compound A]
EC50 (SARS-CoV (Urbani strain); [7]): 4.6 µM
EC50 (SARS-CoV (Urbani strain); [8]): 57.7 µM
EC50 (MERS-CoV (Jordan strain); [7]): 2.15 µM
EC50 (MERS-CoV (Jordan strain); [8]): 26.9 µM
EC90 ([1]; EC90 adjusted with CLE, read-out: Adjusted EC90): 0.87 µM
SI ([1]; SI=CC50/EC90, Vero76 cells): >27
EC90 ([1]; VYR at day 3, MOI 0.002, compound added 24 hours prior to infection, read-out: EC90): 10.9 µM
AUC0-inf ([2]; single IV dose 5 mg/kg): 21200 ng·h/mL
AUC24 ([2]; single IV dose 5 mg/kg): 10950 ng·h/mL
CL ([2]; single IV dose 5 mg/kg): 17.1 L/h
Cmax ([2]; single IV dose 5 mg/kg): 5540 ng/mL
Vz ([2]; single IV dose 5 mg/kg): 2725 L
t1/2 ([2]; single IV dose 5 mg/kg): 111 h
AUCt ([2]; single IV dose 5 mg/kg): 17100 ng·h/mL
AUC0-inf ([2]; single IV dose 10 mg/kg): 37100 ng·h/mL
AUC24 ([2]; single IV dose 10 mg/kg): 21070 ng·h/mL
CL ([2]; single IV dose 10 mg/kg): 20.7 L/h
Cmax ([2]; single IV dose 10 mg/kg): 10300 ng/mL
Vz ([2]; single IV dose 10 mg/kg): 3049 L
t1/2 ([2]; single IV dose 10 mg/kg): 114.5 h
AUCt ([2]; single IV dose 10 mg/kg): 32400 ng·h/mL
AUC0-inf ([2]; single IV dose 15 mg/kg): 65900 ng·h/mL
AUC24 ([2]; single IV dose 15 mg/kg): 34370 ng·h/mL
CL ([2]; single IV dose 15 mg/kg): 16.7 L/h
Cmax ([2]; single IV dose 15 mg/kg): 17700 ng/mL
Vz ([2]; single IV dose 15 mg/kg): 4138 L
t1/2 ([2]; single IV dose 15 mg/kg): 182.5 h
AUCt ([2]; single IV dose 15 mg/kg): 59900 ng·h/mL
AUC0-inf ([2]; single IV dose 20 mg/kg): 81200 ng·h/mL
AUC24 ([2]; single IV dose 20 mg/kg): 44770 ng·h/mL
CL ([2]; single IV dose 20 mg/kg): 17.9 L/h
Cmax ([2]; single IV dose 20 mg/kg): 20500 ng/mL
Vz ([2]; single IV dose 20 mg/kg): 4010 L
t1/2 ([2]; single IV dose 20 mg/kg): 133.5 h
AUCt ([2]; single IV dose 20 mg/kg): 73400 ng·h/mL
safety and tolerability ([2]; single IV dose 5-20 mg/kg, healthy subjects): generally safe and well tolerated
dose proportionality of Cmax, AUCt and AUCinf ([2]; single IV doses 5-20 mg/kg): increased in dose-proportional manner
NOAEL exposure (NOAEL exposure in NHP): approximately 52,500 ng*h/mL
CC50 (Vero76 cells): > 296 µM
dose proportionality of exposure [3]: dose-proportional and linear with increasing dose
safety and tolerability [3]: generally safe and well tolerated
time after administration at which plasma concentrations were maximal [3]: 1 to 2 h
increase in exposure (AUC) with repeat dosing ([3]; im): approximately 1.5 fold
t1/2 ([3]; im, 2.5 mg/kg): 104 (15.9) h
t1/2 ([3]; im, 5 mg/kg): 85.7 (17.3) h
AUC0-24 ([3]; im, 10 mg/kg): 20300 ng·h/mL
AUCtau ([3]; im, 10 mg/kg): 34500 ng·h/mL
Cmax ([3]; im, 10 mg/kg): 7980 ng/mL
Tmax ([3]; im, 10 mg/kg): 0.375 h
t1/2 ([3]; im, 10 mg/kg): 113 (26.4) h
safety and tolerability [4]: generally safe and well tolerated
safety and tolerability [5]: generally safe and well tolerated
lung tissue histopathology (total histology score) vs vehicle control ([6]; Group 1 (first dose −24 hours)): reduced/no tissue histopathology as compared with vehicle control
animals that achieved PFU<10 (lower limit of quantification) in OP swabs ([6]; Group 1, 100 mg/kg BID i.p., first dose −24 hr): 62.5%
weight loss ([6]; Group 1, 100 mg/kg BID i.p., first dose −24 hr relative to infection): < 5%
lung tissue histopathology (total histology score) vs vehicle control ([6]; Group 2 (first dose +1.5 hours)): reductions relative to vehicle control
lung viral burden lower than vehicle control ([6]; Group 3 (first dose +24 hours)): ~0.66 log
clinical scores, adverse impact of dosing ([6]; Groups 1-3, 100 mg/kg BID i.p.): no adverse impact
lung viral burden lower than vehicle control ([6]; Groups 1 and 2 (first dose −24 and +1.5 hours)): 1.4-1.6 log
safety and tolerability (SARS-CoV-2; Cohorts 1-3, IV loading/maintenance regimens for 7 days, hospitalized COVID-19 patients): safe and generally well tolerated
clinical efficacy compared to placebo (SARS-CoV-2; Cohorts 1-3, Part 1 not sized for efficacy): no clinical efficacy benefit
decline in viral RNA levels in the respiratory tract (SARS-CoV-2; Cohorts 1-3, apparent dose-dependent manner): more rapid decline in viral RNA levels in the respiratory tract
time to a negative viral RNA result in LRT samples compared to placebo (SARS-CoV-2; Cohorts 1-3, shortest in Cohorts 2 and 3): shorter time to a negative viral RNA result
